Earlier results as cited in patent US11376213B2, “Topical pharmaceutical formulation” (Futura Medical Developments Limited, priority 2016, dated 2022).
Where a name gives a salt, the structure may show the parent alone.

What was measured:
[1] = not given; remark: listed apart in the source
[2] = factor by which greater than piroxicam

CC(C)Cc1ccc(C(C)C(=O)O)cc1 (centres unmarked) [Ibuprofen, isobutylphenylpropionic acid]
aqueous solubility: extremely low

O=C(O)Cc1ccccc1Nc1c(Cl)cccc1Cl [diclofenac acid]
saturated solubility in polyethylene glycol ([1]; polyethylene glycol): 11.18 % w/w
saturated solubility in propylene glycol [1]: 1.16 % w/w

O=C(O)Cc1ccccc1Nc1c(Cl)cccc1Cl [diclofenac]
efficacy index (ratio of skin penetration to potency) relative to piroxicam [2]: ~10^3

O=C(O)Cc1ccccc1Nc1c(Cl)cccc1Cl [sodium salt of diclofenac acid, diclofenac sodium]
saturated solubility in propylene glycol [1]: approximately 50 % w/w
